# Reference: patent US12427212B2, “Nectin-4 binding miniproteins, conjugates and uses thereof” (Aktis Oncology, Inc., priority 2023, dated 2025)
# Entries after “also recorded” stand apart in the source; their conditions may differ. Like-named read-outs stand apart in the source and are kept apart here. Bridges are numbered along the chain shown (N, C = ends). Primed or numbered codes have the meaning given here. The star is where a group is joined. DOTA = O=C(O)CN1CCN(CC(=O)O)CCN(CC(=O)*)CCN(CC(=O)O)CC1; PEG4 = NCCOCCOCCOCCOCCC(=O)O; PEG4′ = not defined here
# Key:
# [1] = molecular target: T1, Nectin-4 (Homo sapiens, UniProt Q96NY8); assay: DELFIA competitive binding assay (Ki) against Eu-labeled C307 on HT-1376 cells; conditions: in the presence of europium-labeled C307
# T1 sequence (Q96NY8 32-510): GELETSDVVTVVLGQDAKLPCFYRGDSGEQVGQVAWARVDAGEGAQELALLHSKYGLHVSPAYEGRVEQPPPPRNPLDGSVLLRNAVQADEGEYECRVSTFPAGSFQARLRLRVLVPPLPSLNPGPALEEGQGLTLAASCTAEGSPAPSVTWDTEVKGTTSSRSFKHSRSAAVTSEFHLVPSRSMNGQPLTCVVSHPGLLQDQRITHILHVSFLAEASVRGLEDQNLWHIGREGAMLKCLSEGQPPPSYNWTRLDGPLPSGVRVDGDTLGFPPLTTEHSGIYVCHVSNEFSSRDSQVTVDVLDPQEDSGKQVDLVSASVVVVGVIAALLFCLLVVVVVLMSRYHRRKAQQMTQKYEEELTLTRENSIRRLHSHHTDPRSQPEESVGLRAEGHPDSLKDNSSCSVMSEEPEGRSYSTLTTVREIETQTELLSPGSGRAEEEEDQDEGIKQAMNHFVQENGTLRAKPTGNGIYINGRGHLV
# Experimental: A competition binding assay was utilized to determine the Ki for miniproteins bound to Nectin-4 expressed on the surface of cancer cells. […] Miniprotein incubations occurred for 90 min to reach binding equilibrium. […] After miniprotein incubations, the wells were washed to remove unbound ligand and treated according to manufacturer instructions for a DELFIA® (dissociation-enhanced lanthanide fluorescent immunoassay, Revvity Health Sciences). In brief, washed wells were incubated with 15 μL of 2 M HCl for 2 h at 37° C., after which 17 μL of 2 M NaOH and 30 μL of DELFIA® enhancement solution were added to each well and incubated for an additional 30 min. The remaining Eu reacted with the DELFIA® enhancer solution to generate fluorescence measured on the Envision instrument. Relative fluorescence units (RFUs) were measured as a function of test article concentration in order to calculate an IC50.
# A whole cell binding assay was used to estimate the equilibrium binding affinity (KD) or binding inhibition constant (Ki) of miniprotein ligands to cells expressing a target of interest. Cells were dispensed into a 384-well plate and incubated at 37° C., in 5% CO2 overnight. The next day cells were gently washed once in assay buffer prior to addition of europium chelated ligand. […] For Ki determination, a single concentration (KD equivalent concentration) of europium-chelate miniprotein was added to each well followed immediately by the addition of unconjugated competing ligand over 12 different concentrations ranging from 100 times below and above expected Ki values as before. The plate was incubated for 1.5 h at room temperature to reach binding equilibrium. Cells were then washed three times at room temperature with 1×PBS followed by the addition of 2 M HCl and incubated for two h at 37° C. Following this step, 2 M NaOH and fluorescent inducer solution were added to each well and incubated for 30 minutes at room temperature according to the manufacturer's protocol (Perkin-ELMER DELFIA assay). Plates were read on an Envision plate reader and a curve-fitting model was applied to estimate KD and Ki values using GraphPad Prism software.
# Engineered Nectin-4 miniproteins with further modified lysine residues (C298-C304; as described in Example 4B) were evaluated for their ability to bind to Nectin-4.
# [2] = molecular target: T1, Nectin-4; assay: Flow cytometry binding to Nectin-4-expressing (HT-1376-P) and knockout (HT-1376-KO) cells; assay type: cell-based; conditions: biotinylated miniprotein
# Experimental: Fluorescent imaging for Nectin-4 binding was conducted using assays as described in Example 3. Briefly. Nectin-4 knockout HT-1376 cells were generated via CRISPR/Cas9 mediated gene deletion followed by single cell cloning. […] Flow cytometry was performed to measure on-target binding to cell surface Nectin-4.
# [3] = system: un-transfected HEK293 cells; assay: Background binding to un-transfected HEK293 cells (cell microarray suitability); assay type: cell-based, human; conditions: biotin-labeled molecules
# Experimental: To evaluate potential off-target binding, six biotin-labeled molecules were tested in a cell microarray platform having 6,416 different human proteins spanning diverse functions and subcellular locations.
# [4] = system: HT-1376 cells; assay: Internalization assay of indium-111 radiolabeled conjugate, HT-1376; assay type: cell-based, human; conditions: 37° C. or 4° C., 1 h
# Experimental: (§1) Internalization was assessed for indium-111 radiolabeled C215 in HT-1376 and MCF7 cells. Cells were incubated in the presence of radioligand or radioligand plus 1000 times excess unlabeled compound (C215) at 37° C., or 4° C. for 1 h. At the end of incubation cells were washed four times with PBS and membrane bound radioligand was removed by three 0.5% trypsin washes. Cell suspensions were washed three times by method of centrifugation and removal of supernatant. Internalized radioactivity was measured by gamma counting cell pellets and cell number was determined by counting cells on an automatic cell counter. […] C215, in HT-1376 (FIG. 6A) and MCF7 cell lines (FIG. 6B).
# [5] = system: MCF7 cells; assay: Internalization assay of indium-111 radiolabeled conjugate, MCF7; assay type: cell-based, human; conditions: 37° C. or 4° C., 1 h
# Experimental: as §1
# [6] = system: HT-1376 urothelial cancer cells; assay: In vitro cell cytotoxicity assay of 225Ac-radioconjugates (CellTiter-Glo); assay type: cell-based, human; conditions: compound radiolabeled with 225Ac, 24 h treatment, 4-5 day regrowth, HT-1376 cells
# Experimental: Cytotoxicity to ^225Ac-radioconjugates was assessed in HT-1376 urothelial cancer cells. Cells were seeded in 96-well plates at densities of 250 to 1000 cells per well two days prior to treatment. On the day of treatment ^225Ac-radioconjugates were diluted in culture medium to concentrations ranging from 0,0001 to 100 μCi/mL and treatment solutions were incubated with cells for 24 h. At the end of the treatment period, the treatment solution was removed, and fresh culture medium was replenished for the regrowth period of the assay that lasted 4-5 day's. At the end of the regrowth period the culture medium was removed and viability was assessed by CellTiter-Glo (Promega, Waltham MA) luminescent assay and the plates were read on a Perkin Elmer Enspire multimode plate reader. Data were normalized to treatment controls and plotted as non-linear sigmoidal dose response curves to determine the effective concentration for 50% reduction in cell viability.
# [7] = Thermal stability assay, 75° C., HPLC; assay type: physicochemical; conditions: 1 mg/mL, 0.9% saline solution
# Experimental: The thermal stability of an exemplary compound, C215, was analyzed at a concentration of 1 mg/mL at 75° C., in 0.9% saline solution. A heating plate was set to 75° C. and the sample was heated for a period of one h. The vial was shaken prior to collecting 10 μL aliquots at 5, 10, 15, 30, and 60 minute time intervals. The % parent remaining was analyzed by HPLC using the following system and method: Analytical Agilent 1100 HPLC system using a 4.6×250 mm, 300 Angstrom. BEH300, 5 μm, Xbridge C18 column at 1.0 mL/min. The solvent system consisted of A=Water+0.1% TFA, B=Acetonitrile+0.1% TFA. The gradient consisted of 5% to 70% B over 15 minutes, then the column was washed and equilibrated to initial conditions.
# [8] = previously published; cited from earlier work
# [9] = system: HT-1376-cells ("Parental", which express Nectin-4); assay: In vivo efficacy in cell-line derived xenograft (CDX) model, HT-1376 parental; set-up: species or system mouse; conditions: 3 mg/kg IV QWx3; versus vehicle
# Experimental: In vivo efficacy study experiments were performed in tumor bearing athymic nude mice. […] Tumors were monitored for a minimum of 14 days prior to group stratification and study initiation dates.
# Dose measurements for a sample injected dose were measured and confirmed on a gamma counter and corrected for decay. EV doses were calculated based on mouse weights and liquid concentration of prepared material. Indicated doses of vehicle, EV or radiolabeled C251 were prepared corresponding to the indicated administered dose levels per group. Doses were administered via tail vein injection while restrained and awake.
# Animal monitoring: Tumor volume (caliper measurement) and body weight measurements for enrolled mice were performed twice a week for an initial planned monitoring period of 8 weeks. More frequent gross observations of mice were performed.
# Hunan endpoints: Mice remained on study until they reached the end of the 8-week monitoring period or a number of pre-defined humane endpoints, including: • 1. An increase in tumor volume size that exceeds >1500 mm^3, or 20 mm in one dimension, or tumor becomes ulcerated or necrotic. • 2. A decrease in body weight ≥20% from maximum recorded weight. • 3. Any signs of pain or distress (i.e., consistent hunched posture, rough coat, squinted eyes, slowed gait). • 4. Tumors that compromise mobility or ability to eat or drink. • 5. BCS score ≤2. […]
# [10] = molecular target: T1, Nectin-4; conditions: cited from earlier work
# [11] = system: HT-1376 urothelial cancer cells; assay: Radioligand binding of lutetium-177 radioconjugates, saturation and kinetic analysis; set-up: species or system human; conditions: lutetium-177 radioconjugates of PEG4-DOTA compounds, HT-1376 cells, global fit of association and dissociation
# Experimental: Radioligand binding was performed in HT-1376 urothelial cancer cells by method of saturation. Cells were seeded at 20,000 cells per well in 96-well format 48 h prior to assay. Lutetium-177-labeled radioconjugates of C215 and C117 were incubated with cells at 4° C. for 1 h at various increasing concentrations of radioligand. At the end of incubation, cells were washed three times with PBS and radioactivity was quantified by gamma counting as shown in FIGS. 4A-5B.
# Radioligand binding was performed in HT-1376 urothelial cancer cells by method of kinetic analysis. Cells were seeded at 20,000 cells per well in 96-well format 48 h prior to assay. On the day of assay, culture medium was removed and PBS was added to cells. Association kinetics were measured at three concentrations of radioligand, and this was performed by the addition of lutetium-177 radioconjugates to cells at various time points from 1 to 60 minutes.
# [12] = In vivo biodistribution of 111In-labeled miniproteins by SPECT/CT, HT-1376 xenograft; set-up: species or system mouse; conditions: female, athymic nude, mouse, in vivo
# In short: (§2)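 Uptake in % ID/g from maximum intensity projections of SPECT/CT scans, with SPECT in activity units and CT windowed −500 to 4500 HU. Animals carried HT-1376 tumors, a human Nectin-4-expressing line, and were dosed with 111In-labeled miniproteins.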
# [13] = system: HT-1376 tumor xenograft; assay: as above; set-up: species or system mouse; conditions: 111In-labeled, tumor, +4 h, HT-1376 xenograft mice
# In short: as §2
# [14] = PhII trial, locally advanced or metastatic bladder cancer, 10.2 months median follow up
compound,measurement,setting,value
CC[C@H](C)[C@@H]1NC(=O)[C@H](Cc2ccc(O)cc2)NC(=O)[C@H](CCC(N)=O)NC(=O)[C@@H]2CSSC[C@@H](C(=O)N[C@@H](CO)C(=O)O)NC(=O)CNC(=O)[C@H](CC(C)C)NC(=O)[C@H](CC(N)=O)NC(=O)[C@H](CC(=O)O)NC(=O)[C@H](CC(C)C)NC(=O)[C@H]([C@@H](C)CC)NC(=O)[C@H](CCC(=O)O)NC(=O)[C@H](CCC(=O)O)NC(=O)[C@H]([C@@H](C)CC)NC(=O)[C@H](CSSC[C@H](NC(=O)CCOCCOCCOCCOCCNC(=O)CCCC[C@@H]3SC[C@@H]4NC(=O)N[C@@H]43)C(=O)N[C@@H](CCC(=O)O)C(=O)N[C@@H](Cc3ccc(O)cc3)C(=O)N[C@@H](CC(=O)O)C(=O)N[C@@H](CCC(=O)O)C(=O)N[C@@H](CCC(=O)O)C(=O)N[C@@H](Cc3ccccc3)C(=O)N[C@@H](Cc3ccccc3)C(=O)N[C@@H]([C@@H](C)O)C(=O)N[C@@H](C)C(=O)N[C@@H](CC(C)C)C(=O)N[C@@H](C)C(=O)N[C@@H](CCCNC(=N)N)C(=O)N[C@@H](CC(C)C)C(=O)N[C@@H](CCCNC(=N)N)C(=O)NCC(=O)NCC(=O)N[C@@H](CC(=O)O)C(=O)N[C@@H]([C@@H](C)CC)C(=O)N2)NC(=O)[C@H](CC(C)C)NC(=O)[C@H](C)NC(=O)[C@@H]2CCCN2C(=O)[C@H](CC(C)C)NC(=O)[C@H](Cc2ccc(O)cc2)NC(=O)[C@H](CCC(N)=O)NC(=O)[C@H](Cc2ccccc2)NC(=O)[C@H](CCCC[N+](C)(C)C)NC(=O)[C@H](C)NC(=O)[C@H](CCC(N)=O)NC1=O [Compound C253],binding to endogenous Nectin-4 expressed on HT-1376 cells (FIG. 21),[1],high binding affinity
same,"on-target binding to cell surface Nectin-4, HT-1376-P versus HT-1376-KO cells",[2],potent and highly selective Nectin-4 targeting agent; also recorded: selective target binding
same,Background binding to un-transfected HEK293 cells,[3],low-background binding
C215 ({DOTA-PEG4′}-CEYDEEFFTALKRLRGGDICYYIKKKFKKVPKLCIEEILDKLGC-NH2; cysteine pairing not given here) [Compound C215],internalization of radioconjugate,[4],successfully internalized into cells
same,internalization of radioconjugate,[5],successfully internalized into cells
same,EC50 (microcurie/milliliter) for 225Ac radioconjugates,[6],0.086 microcurie/milliliter
same,"thermal stability, % parent remaining",[7],remain stable over 60 min
enfortumab vedotin,Plasma terminal half-life (min),[8],"2,476.8 (1.72 days) min"
enfortumab vedotin [EV],Tumor volume,[9],Some reduction in tumor volume
same,overall tumor objective response rate (ORR),"[10]; PhI study, patients previously treated with ICI therapy",42%
same,ORR,"[10]; PhI study, patients with particularly high tumor burden (liver metastases)",36%
same,ORR,[10]; [14],44%
same,complete response rate (CRR),[10]; [14],12%
"{DOTA-PEG4}-CEYDEEFFTALKRLRGGDICYYIQAKFQYLPKLCIEEILDNLGCS-OH (disulfide 1-34, 20-44 (inferred)) [Compound C117]",Kd,[11],2.64 nM
same,tissue uptake at 4 h,[12],150 %ID/g
same,tissue uptake at 24 h,[12],93.3 %ID/g
same,Data of Biodistribution (+4 h Tumor~% ID/g),[13],2.29 % ID/g
same,EC50 (microcurie/milliliter) for 225Ac radioconjugates,[6],0.014 microcurie/milliliter
